“And” between values parts separate entries of the source, which are not always exact repeats. Identical values can stand only once. “Also recorded” adds a separate entry of the source. Like-named read-outs stand apart in the source and are kept apart here.
Legend:
mAC2 = mAC2 (Homo sapiens, UniProt Q08462); assay: mAC assay, HEK293 cells stably expressing AC2; format: cell-based; settings: for % of control AC2 / effect on selectively-stimulated cAMP response at AC2 (in words): 30 µM; for % of control AC2: HEK293-AC2, stimulated with 100 nM PMA, ± S.E.M.
Sequence of mAC2 (Q08462 whole entry): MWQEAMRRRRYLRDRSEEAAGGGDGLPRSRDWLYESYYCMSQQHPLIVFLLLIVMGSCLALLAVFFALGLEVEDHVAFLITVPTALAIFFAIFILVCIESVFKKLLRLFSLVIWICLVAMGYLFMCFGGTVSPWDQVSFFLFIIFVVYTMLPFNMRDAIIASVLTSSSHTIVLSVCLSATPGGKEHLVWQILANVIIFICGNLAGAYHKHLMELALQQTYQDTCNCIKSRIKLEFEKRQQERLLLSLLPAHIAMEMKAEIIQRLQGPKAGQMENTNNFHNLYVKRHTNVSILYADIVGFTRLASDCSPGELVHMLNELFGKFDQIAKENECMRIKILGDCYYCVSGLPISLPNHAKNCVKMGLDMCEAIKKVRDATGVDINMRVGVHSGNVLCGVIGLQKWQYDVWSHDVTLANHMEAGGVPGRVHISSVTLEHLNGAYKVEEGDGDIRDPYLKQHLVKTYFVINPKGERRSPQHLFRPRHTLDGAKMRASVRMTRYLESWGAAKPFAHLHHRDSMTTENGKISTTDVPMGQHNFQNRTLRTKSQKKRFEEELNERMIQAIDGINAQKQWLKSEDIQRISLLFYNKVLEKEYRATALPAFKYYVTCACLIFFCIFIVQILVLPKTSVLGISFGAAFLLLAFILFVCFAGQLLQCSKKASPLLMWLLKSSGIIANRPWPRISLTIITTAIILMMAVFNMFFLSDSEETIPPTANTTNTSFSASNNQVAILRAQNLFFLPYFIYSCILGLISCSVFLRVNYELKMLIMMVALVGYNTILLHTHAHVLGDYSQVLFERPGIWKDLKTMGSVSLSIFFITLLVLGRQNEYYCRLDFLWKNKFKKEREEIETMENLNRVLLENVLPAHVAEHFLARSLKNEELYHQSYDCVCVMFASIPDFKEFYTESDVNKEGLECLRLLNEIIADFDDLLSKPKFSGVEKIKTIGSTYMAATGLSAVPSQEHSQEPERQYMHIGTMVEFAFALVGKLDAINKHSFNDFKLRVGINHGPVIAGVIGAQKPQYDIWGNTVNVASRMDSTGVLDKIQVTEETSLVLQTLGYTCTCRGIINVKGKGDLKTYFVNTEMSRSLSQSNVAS

mAC5 = mAC5 (Homo sapiens, UniProt O95622); assay: mAC assay, HEK293 cells stably expressing AC5; format: cell-based; settings: for % of control AC5: 30 µM, HEK293-AC5, stimulated with 300 nM forskolin, ± S.E.M.
B. pertussis ACT = B. pertussis ACT (Bordetella pertussis, UniProt P0DKX7); assay: cell-based; format: cell-based
Sequence of B. pertussis ACT (P0DKX7 whole entry, looked up): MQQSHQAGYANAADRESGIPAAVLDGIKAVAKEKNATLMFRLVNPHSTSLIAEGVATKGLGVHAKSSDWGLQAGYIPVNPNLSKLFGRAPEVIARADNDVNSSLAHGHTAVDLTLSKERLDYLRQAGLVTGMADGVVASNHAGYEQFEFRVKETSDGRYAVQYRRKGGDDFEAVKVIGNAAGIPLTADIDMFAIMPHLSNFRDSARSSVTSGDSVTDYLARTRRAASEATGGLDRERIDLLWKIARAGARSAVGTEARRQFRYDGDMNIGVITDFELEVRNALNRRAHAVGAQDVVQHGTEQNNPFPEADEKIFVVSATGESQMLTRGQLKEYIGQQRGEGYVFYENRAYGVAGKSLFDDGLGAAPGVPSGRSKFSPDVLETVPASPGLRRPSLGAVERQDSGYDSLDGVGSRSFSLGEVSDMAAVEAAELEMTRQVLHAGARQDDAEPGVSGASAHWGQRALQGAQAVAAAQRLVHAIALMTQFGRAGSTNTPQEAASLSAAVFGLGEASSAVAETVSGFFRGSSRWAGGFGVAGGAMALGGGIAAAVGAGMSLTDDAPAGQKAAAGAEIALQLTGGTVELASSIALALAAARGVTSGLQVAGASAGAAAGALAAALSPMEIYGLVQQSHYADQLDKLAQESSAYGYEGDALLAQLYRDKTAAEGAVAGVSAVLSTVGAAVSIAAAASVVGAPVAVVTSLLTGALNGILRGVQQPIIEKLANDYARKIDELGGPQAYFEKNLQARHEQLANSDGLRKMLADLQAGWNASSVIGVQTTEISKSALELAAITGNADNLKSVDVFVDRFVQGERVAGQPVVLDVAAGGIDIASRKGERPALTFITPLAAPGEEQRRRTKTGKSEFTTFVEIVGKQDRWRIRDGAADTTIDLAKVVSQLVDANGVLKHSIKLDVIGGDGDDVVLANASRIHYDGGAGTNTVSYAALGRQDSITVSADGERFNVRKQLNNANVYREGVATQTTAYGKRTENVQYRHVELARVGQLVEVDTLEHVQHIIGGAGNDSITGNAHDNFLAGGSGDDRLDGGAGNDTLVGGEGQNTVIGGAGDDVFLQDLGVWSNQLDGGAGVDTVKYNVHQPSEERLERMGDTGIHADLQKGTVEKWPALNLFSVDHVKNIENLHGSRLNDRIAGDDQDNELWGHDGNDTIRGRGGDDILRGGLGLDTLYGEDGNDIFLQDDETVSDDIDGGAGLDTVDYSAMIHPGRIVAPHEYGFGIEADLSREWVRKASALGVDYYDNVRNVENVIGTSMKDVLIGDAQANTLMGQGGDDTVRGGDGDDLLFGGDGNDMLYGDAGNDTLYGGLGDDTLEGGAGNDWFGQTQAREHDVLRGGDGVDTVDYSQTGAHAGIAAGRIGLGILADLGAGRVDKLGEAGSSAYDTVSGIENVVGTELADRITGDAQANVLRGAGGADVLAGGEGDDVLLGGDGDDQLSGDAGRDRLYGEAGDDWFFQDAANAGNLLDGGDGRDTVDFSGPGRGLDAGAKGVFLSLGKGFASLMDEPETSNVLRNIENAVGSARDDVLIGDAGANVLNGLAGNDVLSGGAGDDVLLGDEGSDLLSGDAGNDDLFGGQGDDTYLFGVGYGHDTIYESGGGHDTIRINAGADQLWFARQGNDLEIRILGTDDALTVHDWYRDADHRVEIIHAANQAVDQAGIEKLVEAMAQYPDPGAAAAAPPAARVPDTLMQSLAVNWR

J774A.1 cells = assay: Effect on the viability of J774A.1 cells; format: cell-based, murine
mAC1 = mAC1 (Homo sapiens, UniProt Q08828); assay: mAC assay, HEK293 cells stably expressing AC1; format: cell-based; settings: for % of control AC1 / effect on selectively-stimulated cAMP response at AC1 (in words): 30 µM; for % of control AC1: HEK293-AC1, stimulated with 3 µM A23187, ± S.E.M.
Sequence of mAC1 (Q08828 whole entry): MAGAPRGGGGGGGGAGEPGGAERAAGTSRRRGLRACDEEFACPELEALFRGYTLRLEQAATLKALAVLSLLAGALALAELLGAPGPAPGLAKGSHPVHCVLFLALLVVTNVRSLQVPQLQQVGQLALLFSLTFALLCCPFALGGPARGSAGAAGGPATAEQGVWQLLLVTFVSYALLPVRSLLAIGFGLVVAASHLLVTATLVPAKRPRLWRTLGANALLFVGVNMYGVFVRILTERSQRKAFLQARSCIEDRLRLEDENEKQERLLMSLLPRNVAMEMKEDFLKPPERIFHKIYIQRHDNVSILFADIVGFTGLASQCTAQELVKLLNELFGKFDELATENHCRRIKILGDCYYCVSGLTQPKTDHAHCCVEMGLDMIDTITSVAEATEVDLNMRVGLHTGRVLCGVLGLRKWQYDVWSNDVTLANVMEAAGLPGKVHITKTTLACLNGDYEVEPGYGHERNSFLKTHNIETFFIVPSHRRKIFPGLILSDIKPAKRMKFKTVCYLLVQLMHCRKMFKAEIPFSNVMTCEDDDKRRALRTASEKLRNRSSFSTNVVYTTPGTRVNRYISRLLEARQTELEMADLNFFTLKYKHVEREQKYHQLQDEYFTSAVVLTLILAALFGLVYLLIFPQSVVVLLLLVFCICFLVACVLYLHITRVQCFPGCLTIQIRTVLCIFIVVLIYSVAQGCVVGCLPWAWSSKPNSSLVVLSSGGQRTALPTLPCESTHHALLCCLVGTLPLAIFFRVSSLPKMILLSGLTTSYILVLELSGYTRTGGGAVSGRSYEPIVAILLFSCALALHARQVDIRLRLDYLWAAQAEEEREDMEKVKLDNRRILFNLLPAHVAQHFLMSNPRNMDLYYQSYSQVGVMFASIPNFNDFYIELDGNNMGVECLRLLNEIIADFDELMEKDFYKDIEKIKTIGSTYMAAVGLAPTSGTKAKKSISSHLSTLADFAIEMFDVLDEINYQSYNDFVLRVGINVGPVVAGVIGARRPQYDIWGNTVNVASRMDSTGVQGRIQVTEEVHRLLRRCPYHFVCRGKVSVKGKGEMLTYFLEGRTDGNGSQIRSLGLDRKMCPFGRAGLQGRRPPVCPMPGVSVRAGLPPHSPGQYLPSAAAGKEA

edema factor (EF) = edema factor (EF) (Bacillus anthracis, UniProt P40136); assay: biochemical
Sequence of edema factor (EF) (P40136 whole entry, looked up): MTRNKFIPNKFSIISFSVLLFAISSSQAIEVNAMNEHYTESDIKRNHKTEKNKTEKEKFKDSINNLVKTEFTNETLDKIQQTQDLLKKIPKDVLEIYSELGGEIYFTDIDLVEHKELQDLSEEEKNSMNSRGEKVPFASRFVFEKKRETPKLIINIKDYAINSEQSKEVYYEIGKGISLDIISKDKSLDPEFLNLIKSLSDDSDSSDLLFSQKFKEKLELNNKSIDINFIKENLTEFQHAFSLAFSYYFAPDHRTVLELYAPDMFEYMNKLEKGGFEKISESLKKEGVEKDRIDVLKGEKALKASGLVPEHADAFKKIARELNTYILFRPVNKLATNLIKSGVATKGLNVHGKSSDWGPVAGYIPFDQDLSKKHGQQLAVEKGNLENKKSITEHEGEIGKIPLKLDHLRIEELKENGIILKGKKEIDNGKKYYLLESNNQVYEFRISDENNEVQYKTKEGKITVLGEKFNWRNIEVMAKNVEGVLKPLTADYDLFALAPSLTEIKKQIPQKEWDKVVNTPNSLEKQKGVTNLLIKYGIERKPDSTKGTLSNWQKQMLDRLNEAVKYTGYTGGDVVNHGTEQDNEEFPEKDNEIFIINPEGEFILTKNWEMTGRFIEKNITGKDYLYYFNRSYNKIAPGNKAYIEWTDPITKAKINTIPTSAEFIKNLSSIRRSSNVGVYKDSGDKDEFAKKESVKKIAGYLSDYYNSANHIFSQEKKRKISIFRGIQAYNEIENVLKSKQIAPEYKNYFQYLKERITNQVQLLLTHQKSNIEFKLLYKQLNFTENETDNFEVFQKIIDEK

[1] = read-out: IC50 ACT inhibition in J774A.1 cells

| SMILES | % of control AC2 (mAC2) | % of control AC5 (mAC5) | IC50 (B. pertussis ACT; [1]) | % of control AC1 (mAC1) | further results |
| --- | --- | --- | --- | --- | --- |
| CC(C)OC(=O)[C@H](Cc1ccccc1)NP(=O)(COCC(COC(=O)c1cc(Cl)ccc1N)Cn1cnc2c(N)ncnc21)N[C@@H](Cc1ccccc1)C(=O)OC(C)C (stereo partly drawn) [Compound 26, Bis(L-phenylalanineisopropyl ester) prodrug of ((3-(6-amino-9H-purin-9yl)-2-(5-chloroanthraniloyloxymethyl)propoxy)methyl)phosphonic acid] | 149±27% | 97±11% | 12 µM and 12.1 µM | 94±10% | cytotoxic effect in J774A.1 cells (J774A.1 cells; 10 µM for 5h): no cytotoxic effect; also recorded: no observed cytotoxic effects; Viability (J774A.1 cells; 10 µM, 5 h, versus untreated control): 110% |
| CC(C)OC(=O)[C@H](Cc1ccccc1)NP(=O)(COCC(Cn1cnc2c(N)ncnc21)NC(=O)c1cc(Cl)ccc1N)N[C@@H](Cc1ccccc1)C(=O)OC(C)C (stereo partly drawn) [Compound 14, Bis(L-phenylalanineisopropyl ester) prodrug of ((3-(6-amino-9H-purin-9yl)-2-N-(5-chloroanthraniloyl)propoxy)methyl)phosphonic acid] | 172±34% | 121±23% | > 15 µM | 118±12% | effect on selectively-stimulated cAMP response at AC2 (in words) (mAC2): slightly potentiated; effect on selectively-stimulated cAMP response at AC1 (in words) (mAC1): slightly potentiated |
| CC(C)OC(=O)[C@H](Cc1ccccc1)NP(=O)(COCC(CNC(=O)c1cc(Cl)ccc1N)Cn1cnc2c(N)ncnc21)N[C@@H](Cc1ccccc1)C(=O)OC(C)C (stereo partly drawn) [Compound 29, Bis(L-phenylalanineisopropyl ester) prodrug of ((3-(6-amino-9H-purin-9yl)-2-(5-chloroanthraniloylaminomethyl)propoxy)methyl)phosphonic acid] | 193±48% | 118±18% | > 15 µM | 189±15% | effect on selectively-stimulated cAMP response at AC2 (in words) (mAC2): slightly potentiated; effect on selectively-stimulated cAMP response at AC1 (in words) (mAC1): slightly potentiated |
| Nc1ncnc2c1ncn2C1CCCO1 (stereo not shown) [SQ22536, reference compound] | 84±5% | 64±1% |  |  |  |
| Nc1ncnc2c1ncn2CC(CO)NC(=O)Nc1ccc(Cl)cc1C(=O)O (stereo not shown) [Compound 7, 2-(3-(1-(6-amino-9H-purin-9-yl)-3-hydroxypropan-2-yl)ureido)-5-chlorobenzoic acid] |  |  |  |  | remaining activity at 30 µM (mAC2; HEK293, read-out: % of control AC2): 164 ± 23%; remaining activity at 30 µM (mAC5; HEK293, read-out: % of control AC5): 110 ± 16%; IC50 (B. pertussis ACT): > 15 µM; remaining activity at 30 µM (mAC1; HEK293, read-out: % of control AC1): 178 ± 31% |
| Nc1ccc(Cl)cc1C(=O)NCC(CO)Cn1cnc2c(N)ncnc21 (stereo not shown) [Compound 22, 9-(3-N-(5-Chloroanthraniloyl)-2-(hydroxymethyl)propyl)adenine] | 149±26% | 101±5% | > 15 µM | 156±23% |  |
| Nc1ncnc2c1ncn2CCOCP(=O)(O)OP(=O)(O)OP(=O)(O)O [PMEApp, Adefovir diphosphate] |  |  |  |  | IC50 (edema factor (EF)): 0.0115 ± 0.0026 µM |
| Nc1ccc(Cl)cc1C(=O)NC(CO)Cn1cnc2c(N)ncnc21 (stereo not shown) [Compound 6] | 161±16% | 98±14% | > 15 µM | 163±34% |  |
| Nc1ccc(Cl)cc1C(=O)OCC(CO)Cn1cnc2c(N)ncnc21 (stereo not shown) [Compound 20, 9-(3-O-(5-Chloroanthraniloyl)-2-(hydroxymethyl)propyl)adenine] | 146±10% | 114±18% | > 15 µM | 122±15% |  |

From paper PMC5198786 (ChemMedChem, 2016)
